Measurements reported in ChEMBL document CHEMBL4483862, “Open-source discovery of chemical leads for next-generation chemoprotective antimalarials” (2018).

Test system: Plasmodium berghei
Assay: Luciferase/luciferin-expressing antifolate-resistant parasites were used to infect a culture of HepG2 cells that were pre-incubated with compounds. Infected hepatocytes emit light due to the luciferase reaction. Assay results are presented as the percent inhibition of light emission compared to control. […]
Assay type: functional
Conditions: sporozoite; for IC90: read-out: LUCIFERASE INFECTION ASSAY - IC90

Row | Structure (SMILES) | IC90 | further results
1 | CCCSC(=S)c1c(C)nn(-c2ccccc2)c1O | > 11.3 µM | IC50 (PBLUC_HILL_SLOPE 10.5, PBLUC_R_SQUARED 0.318, read-out: LUCIFERASE INFECTION ASSAY - IC50): 10.1 µM
2 | CN(C)CCn1c(=O)n(Cc2ccccc2)c(=O)c2c3c(sc21)CCCCC3 | > 8.3 µM | IC50 (PBLUC_HILL_SLOPE 10.5, PBLUC_R_SQUARED 0.0293, read-out: LUCIFERASE INFECTION ASSAY - IC50): 7.95 µM
3 | CCN1CCN(c2ccc(S(=O)(=O)N3CCOCC3)cc2NC(=O)/C=C/c2ccc([N+](=O)[O-])cc2)CC1 | > 10 µM | IC50 (PBLUC_HILL_SLOPE 11, PBLUC_R_SQUARED 0.478, read-out: LUCIFERASE INFECTION ASSAY - IC50): 8.35 µM
4 | CC(C)CC(N)c1csc(NC(=O)Nc2ccccc2-c2ccccc2)n1 (stereo not given) | 4.16 µM | IC50 (PBLUC_HILL_SLOPE 10.5, PBLUC_R_SQUARED 0.579, read-out: LUCIFERASE INFECTION ASSAY - IC50): 3.37 µM
5 | Cc1ccc(NC(=O)c2cc(-c3cc(Cl)ccc3C)[nH]n2)cc1NS(C)(=O)=O | 7.29 µM | IC50 (PBLUC_HILL_SLOPE 10.6, PBLUC_R_SQUARED 0.45, read-out: LUCIFERASE INFECTION ASSAY - IC50): 5.92 µM
6 | C/C(=N\Nc1cccc([N+](=O)[O-])c1)c1cc2ccccc2o1 | 4.09 µM | IC50 (PBLUC_HILL_SLOPE 10.9, PBLUC_R_SQUARED 0.683, read-out: LUCIFERASE INFECTION ASSAY - IC50): 3.34 µM
7 | Cc1nc2ccccc2c(=O)n1/N=C/c1cn(-c2ccccc2)nc1-c1cccs1 | > 10 µM | IC50 (PBLUC_HILL_SLOPE 10.9, PBLUC_R_SQUARED 0.148, read-out: LUCIFERASE INFECTION ASSAY - IC50): 8.36 µM
8 | CCCc1cc(=O)n2nc(C)c(-c3ccc(Cl)cc3)c2[nH]1 | 4.98 µM | IC50 (PBLUC_HILL_SLOPE 10.5, PBLUC_R_SQUARED 0.468, read-out: LUCIFERASE INFECTION ASSAY - IC50): 4.03 µM
9 | c1csc(-c2cn3c(-c4ccsc4)cnc3cn2)c1 | > 11.6 µM | IC50 (PBLUC_HILL_SLOPE 10.9, PBLUC_R_SQUARED 0.0923, read-out: LUCIFERASE INFECTION ASSAY - IC50): > 11.6 µM
10 | COc1cccc(-c2cn3c(-c4ccccc4)cnc3cn2)c1F | 10.2 µM | IC50 (PBLUC_HILL_SLOPE 10.4, PBLUC_R_SQUARED 0.353, read-out: LUCIFERASE INFECTION ASSAY - IC50): 8.27 µM
11 | CNC(=O)c1ccc(CN(Cc2ccco2)C(=O)c2cc(-c3cccs3)nn2-c2ccccc2)cc1 | 4.68 µM | IC50 (PBLUC_HILL_SLOPE 10.4, PBLUC_R_SQUARED 0.208, read-out: LUCIFERASE INFECTION ASSAY - IC50): 3.79 µM
12 | CC(C)CC(NC(=O)c1ccc(C#N)cc1)c1ccccc1 (stereo not given) | 9.52 µM | IC50 (PBLUC_HILL_SLOPE 10.9, 7.64, PBLUC_R_SQUARED 0.439, 0.355, read-out: LUCIFERASE INFECTION ASSAY - IC50): 8.11 µM
13 | CC(C)(C)NC(=S)Nc1ccc(C(F)(F)F)cc1[N+](=O)[O-] | > 10.3 µM | IC50 (PBLUC_HILL_SLOPE 10.5, PBLUC_R_SQUARED 0.215, read-out: LUCIFERASE INFECTION ASSAY - IC50): 9.08 µM
14 | CN(CC(=O)Nc1ccc(Oc2ccccc2)cc1)c1c(N)n(Cc2ccccc2)c(=O)[nH]c1=O | > 10 µM | IC50 (PBLUC_HILL_SLOPE 10.4, PBLUC_R_SQUARED 0.215, read-out: LUCIFERASE INFECTION ASSAY - IC50): 9.74 µM
15 | CC(C)(C)OC(=O)N1CCc2nc(NC(=O)c3csc(-c4ccco4)n3)sc2C1 | > 10 µM | IC50 (PBLUC_HILL_SLOPE 10.5, PBLUC_R_SQUARED 0.574, read-out: LUCIFERASE INFECTION ASSAY - IC50): 9.17 µM
16 | COc1ccc2[nH]c(C)c(-c3csc(NC(=O)c4ccccn4)n3)c2c1 | > 9.06 µM | IC50 (PBLUC_HILL_SLOPE 10.6, PBLUC_R_SQUARED 0.566, read-out: LUCIFERASE INFECTION ASSAY - IC50): 7.84 µM
17 | COc1cccc(-c2cn3c(-c4ccc(C(=O)NC5CC5)cc4)cnc3cn2)c1F | 7.93 µM | IC50 (PBLUC_HILL_SLOPE 10.9, PBLUC_R_SQUARED 0.72, read-out: LUCIFERASE INFECTION ASSAY - IC50): 6.48 µM
18 | Cc1ccc(C(=O)/C=C/c2cn(C)c(=O)n(C)c2=O)c(C)c1 | > 10 µM | IC50 (PBLUC_HILL_SLOPE 10.4, PBLUC_R_SQUARED 0.461, read-out: LUCIFERASE INFECTION ASSAY - IC50): 8.74 µM
19 | COc1cc(OC)cc(-c2cn3c(-c4cccc(OC(F)(F)F)c4)cnc3cn2)c1 | > 7.94 µM | IC50 (PBLUC_HILL_SLOPE 10.9, PBLUC_R_SQUARED 0.156, read-out: LUCIFERASE INFECTION ASSAY - IC50): > 7.94 µM
20 | COC(=O)c1ccc2c(=O)nc(CN3CCc4sccc4C3C)[nH]c2c1 (stereo not given) | > 10 µM | IC50 (PBLUC_HILL_SLOPE 11, PBLUC_R_SQUARED 0.235, read-out: LUCIFERASE INFECTION ASSAY - IC50): > 10 µM

Row | Structure (SMILES) | IC90 | further results
21 | Cc1ccccc1-c1ccnc2c1c(=O)[nH]c(=O)n2Cc1ccccc1 | > 9.61 µM | IC50 (PBLUC_HILL_SLOPE 10.5, PBLUC_R_SQUARED 0.045, read-out: LUCIFERASE INFECTION ASSAY - IC50): > 9.61 µM
22 | Cc1ccc(SCc2cc(=O)n3nc(C)c(-c4ccccc4)c3[nH]2)cc1 | > 9.13 µM | IC50 (PBLUC_HILL_SLOPE 11, PBLUC_R_SQUARED 0.259, read-out: LUCIFERASE INFECTION ASSAY - IC50): 7.6 µM
23 | CCCOc1c(/C=C/C(=O)c2ccc(OCC#N)cc2)cccc1OCC | 9.68 µM | IC50 (PBLUC_HILL_SLOPE 10.6, PBLUC_R_SQUARED 0.425, read-out: LUCIFERASE INFECTION ASSAY - IC50): 7.88 µM
24 | Cc1cc(OCC(=O)NCCc2c(C)cc(C(C)(C)C)cc2C)no1 | 6.12 µM | IC50 (PBLUC_HILL_SLOPE 10.6, 8.08, PBLUC_R_SQUARED 0.262, 0.836, read-out: LUCIFERASE INFECTION ASSAY - IC50): 4.78 µM
25 | COc1ccc(OC)c(S(=O)(=O)N2[C@@H]3CC[C@@H](C3)[C@H]2c2nc3cccc(OCc4ccccc4)c3[nH]2)c1 | > 10 µM | IC50 (PBLUC_HILL_SLOPE 10.6, PBLUC_R_SQUARED 0.0638, read-out: LUCIFERASE INFECTION ASSAY - IC50): > 10 µM
26 | O=C(CNc1cccc(S(=O)(=O)N2CCCCC2)c1)NC(=O)NC1CCCCC1 | > 10 µM | IC50 (PBLUC_HILL_SLOPE 11, PBLUC_R_SQUARED 0.0354, read-out: LUCIFERASE INFECTION ASSAY - IC50): 9.65 µM
27 | O=C1/C(=C/Nc2cccc(O)c2)c2ccccc2C(=O)N1Cc1ccccc1 | 9.61 µM | IC50 (PBLUC_HILL_SLOPE 10.5, PBLUC_R_SQUARED 0.272, read-out: LUCIFERASE INFECTION ASSAY - IC50): 7.8 µM
28 | CCCn1c(-c2cccs2)nc2c(c(=O)c3ccccc3n2C)c1=O | 3.69 µM | IC50 (PBLUC_HILL_SLOPE 10.5, PBLUC_R_SQUARED 0.782, read-out: LUCIFERASE INFECTION ASSAY - IC50): 3 µM
29 | Cc1c(C)c(C)c(S(=O)(=O)Nc2ccc(Oc3ccc(Cl)cc3)cc2)c(C)c1C | > 7.68 µM | IC50 (PBLUC_HILL_SLOPE 11, PBLUC_R_SQUARED 0.0118, read-out: LUCIFERASE INFECTION ASSAY - IC50): > 7.68 µM
30 | CCOc1ccccc1/C=N/n1c(-c2ccc(CC)cc2)cs/c1=N\c1cccc(OC)c1 | 3.81 µM | IC50 (PBLUC_HILL_SLOPE 10.6, PBLUC_R_SQUARED 0.562, read-out: LUCIFERASE INFECTION ASSAY - IC50): 3.1 µM
31 | COc1ccc(NC(=O)c2cccc(S(=O)(=O)N(Cc3ccccc3)c3ccccc3Cl)c2)cn1 | > 10 µM | IC50 (PBLUC_HILL_SLOPE 11, PBLUC_R_SQUARED 0.0841, read-out: LUCIFERASE INFECTION ASSAY - IC50): 9.79 µM
32 | COC(=O)c1ccc(=O)n(CC(=O)Nc2ccc(C(C)(C)C)cc2)c1 | > 10 µM | IC50 (PBLUC_HILL_SLOPE 11, PBLUC_R_SQUARED 0.594, read-out: LUCIFERASE INFECTION ASSAY - IC50): 9.09 µM
33 | Cc1ccc(O)c(C(=O)c2cn/c(=N\c3ccccc3)n(-c3ccccc3)c2)c1 | 4.08 µM | IC50 (PBLUC_HILL_SLOPE 10.6, PBLUC_R_SQUARED 0.86, read-out: LUCIFERASE INFECTION ASSAY - IC50): 3.32 µM
34 | O=C(CSc1nnc(-c2ccccc2)[nH]1)N1c2ccccc2OCC1c1ccccc1 (stereo not given) | > 10 µM | IC50 (PBLUC_HILL_SLOPE 11.0, 1.31, PBLUC_R_SQUARED 0.138, 0.609, read-out: LUCIFERASE INFECTION ASSAY - IC50): 6.33 µM
35 | CCCCOc1ccc(Nc2nc(C(N)Cc3ccc(OC)cc3)cs2)nn1 (stereo not given) | 3.76 µM | IC50 (PBLUC_HILL_SLOPE 10.9, PBLUC_R_SQUARED 0.27, read-out: LUCIFERASE INFECTION ASSAY - IC50): 3.08 µM
36 | Cc1cc(C)c(C)c(S(=O)(=O)N2CCN(S(=O)(=O)c3ccc(C(C)C)cc3)CC2)c1C | > 10 µM | IC50 (PBLUC_HILL_SLOPE 10.5, PBLUC_R_SQUARED 0.247, read-out: LUCIFERASE INFECTION ASSAY - IC50): 8.75 µM
37 | CNc1snc(C)c1C(=O)N(C)Cc1ccc(F)cc1F | 4.37 µM | IC50 (PBLUC_HILL_SLOPE 10.5, PBLUC_R_SQUARED 0.526, read-out: LUCIFERASE INFECTION ASSAY - IC50): 3.55 µM
38 | CCN(CC)c1ccc(NC(=O)c2[nH]nc3ccccc23)cc1S(=O)(=O)Nc1ccc(OC)cc1 | > 10 µM | IC50 (PBLUC_HILL_SLOPE 10.5, PBLUC_R_SQUARED 0.206, read-out: LUCIFERASE INFECTION ASSAY - IC50): 9.2 µM
39 | CNc1nnc(Sc2ncnc3ccsc23)s1 | 9.41 µM | IC50 (PBLUC_HILL_SLOPE 11, PBLUC_R_SQUARED 0.35, read-out: LUCIFERASE INFECTION ASSAY - IC50): 7.71 µM
40 | Cc1nc(-c2ccccn2)nc(NCc2ccccc2)c1Cl | 9.83 µM | IC50 (PBLUC_HILL_SLOPE 11, PBLUC_R_SQUARED 0.469, read-out: LUCIFERASE INFECTION ASSAY - IC50): 8.06 µM
